Patent US8008299B2, “Urotensin II receptor antagonists” (Janssen Pharmaceutica, N.V., priority 2007, dated 2011)

How the values were obtained:
[1] = target: T1, rat GPR14 (U-II receptor) (Rattus norvegicus, UniProt P49684); assay: Rat UII Calcium Mobilization FLIPR Assay; type: cell-based; details: CHO cells transfected with rat GPR14; antagonist activity after 5 min incubation vs agonist (Ac)-CFWK(2-NaI)C-NH2 at 1 nM
T1 construct: expressed in transfected cells
T1 sequence (P49684 1-386): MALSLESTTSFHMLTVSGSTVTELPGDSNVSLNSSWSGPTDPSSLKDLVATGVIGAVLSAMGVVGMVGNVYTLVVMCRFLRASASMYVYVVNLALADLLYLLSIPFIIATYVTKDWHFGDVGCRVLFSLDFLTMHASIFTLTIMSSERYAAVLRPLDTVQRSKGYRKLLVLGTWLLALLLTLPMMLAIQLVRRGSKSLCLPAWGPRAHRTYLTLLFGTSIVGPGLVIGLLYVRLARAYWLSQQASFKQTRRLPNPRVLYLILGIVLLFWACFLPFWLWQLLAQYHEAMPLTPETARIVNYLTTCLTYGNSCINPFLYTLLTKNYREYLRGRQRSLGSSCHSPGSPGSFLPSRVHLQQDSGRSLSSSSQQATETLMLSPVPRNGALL
Outline: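 CHO cells stably expressing rat U-II receptor, seeded 24 h before assay, were loaded with FLIPR calcium dye in HBSS/20 mM HEPES/0.1% BSA/2.5 mM probenecid, pH 7.4, for 1 h at 37° C. Calcium mobilization then read by FLIPR at 23° C.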

[2] = target: T2, Human UII (U-II receptor) in 6D9 human rhabdomyosarcoma cells (Homo sapiens, UniProt Q9UKP6); assay: Human UII Calcium Mobilization Assay; type: cell-based; details: 6D9 human rhabdomyosarcoma cells, FLIPR TETRA, average; read-out: Human UII Ca+ Mobilization Average IC50
T2 construct: 6D9: isolated by dilution subcloning of RMS13 cells, ATCC® Number: CRL-2061; host or cells: 6D9 human rhabdomyosarcoma cells (subclone of RMS13)
T2 sequence (Q9UKP6 1-389): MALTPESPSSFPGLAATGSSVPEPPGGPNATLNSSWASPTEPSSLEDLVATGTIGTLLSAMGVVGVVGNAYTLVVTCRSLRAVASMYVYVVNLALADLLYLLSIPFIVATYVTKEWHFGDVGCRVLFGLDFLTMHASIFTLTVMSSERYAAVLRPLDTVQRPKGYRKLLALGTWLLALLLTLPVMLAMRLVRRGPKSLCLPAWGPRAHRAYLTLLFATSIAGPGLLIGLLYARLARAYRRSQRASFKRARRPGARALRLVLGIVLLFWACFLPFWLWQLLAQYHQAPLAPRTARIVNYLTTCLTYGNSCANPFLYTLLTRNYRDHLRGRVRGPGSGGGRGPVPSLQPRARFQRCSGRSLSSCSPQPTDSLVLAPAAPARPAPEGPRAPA

[3] = target: T3, UT receptors in HSMM (Human Skeletal Muscle Myoblasts) (Homo sapiens, UniProt Q9UKP6); assay: Human Radioligand Binding Assay ((^125I)-U-II binding to intact HSMM)
T3 sequence (Q9UKP6 1-389): T2 sequence (Q9UKP6 1-389)

[4] = target: T1, rat GPR14 (U-II receptor); details: agonist activity of the cyclic peptide used as agonist; read-out: FLIPR EC50; cited from earlier work
rU-II = target: T4, rU-II (Rattus norvegicus, UniProt P49684); details: cited from earlier work
T4 sequence (P49684 1-386): T1 sequence (P49684 1-386)

Row | IC50 [1] [nM] | IC50 [2] [nM] | Ki [3] [nM] | Compound | EC50 [4] [nM] | Ki (rU-II) [nM]
1 | 4 | 56 | 26 | CCN1CCN(c2cccc3c2CN([C@H](CCCN(C)Cc2ccccc2F)c2ccc(OC)c(OC)c2)C3=O)CC1 [Cpd 97, 2-{(1R)-1-(3,4-dimethoxy-phenyl)-4-[(2-fluoro-benzyl)-methyl-amino]-butyl}-4-(4-ethyl-piperazin-1-yl)-2,3-dihydro-isoindol-1-one] |  | 
2 | 4 | 105 | 59 | CCN1CCN(c2cccc3c2CN([C@H](CCCN(C)Cc2cccc(F)c2)c2ccc(OC)c(OC)c2)C3=O)CC1 [Cpd 98, 2-{(1R)-1-(3,4-dimethoxy-phenyl)-4-[(3-fluoro-benzyl)-methyl-amino]-butyl}-4-(4-ethyl-piperazin-1-yl)-2,3-dihydro-isoindol-1-one] |  | 
3 | 4 | 238 | 47 | CCN1CCN(c2cccc3c2CN([C@H](CCCN(C)Cc2ccc(F)cc2)c2ccc(OC)c(OC)c2)C3=O)CC1 [Cpd 99, 2-{(1R)-1-(3,4-dimethoxy-phenyl)-4-[(4-fluoro-benzyl)-methyl-amino]-butyl}-4-(4-ethyl-piperazin-1-yl)-2,3-dihydro-isoindol-1-one] |  | 
4 | 8 | 319 | 24 | CCN1CCN(c2cccc3c2CN([C@H](CCCN2Cc4ccccc4C2)c2ccc(OC)c(OC)c2)C3=O)CC1 [Cpd 100, 2-[(1R)-4-(1,3-dihydro-isoindol-2-yl)-1-(3,4-dimethoxy-phenyl)-butyl]-4-(4-ethyl-piperazin-1-yl)-2,3-dihydro-isoindol-1-one] |  | 
5 | 5 | 69 | 21 | CCN1CCN(c2cccc3c2CN([C@H](CCCN2CCc4ccccc4C2)c2ccc(OC)c(OC)c2)C3=O)CC1 [Cpd 101, 2-[(1R)-4-(3,4-dihydro-1H-isoquinolin-2-yl)-1-(3,4-dimethoxy-phenyl)-butyl]-4-(4-ethyl-piperazin-1-yl)-2,3-dihydro-isoindol-1-one] |  | 
6 | 93 | 1280 | > 300 | CCN1CCN(c2cccc3c2CN([C@H](CCCn2cc(C)nc2C)c2ccc(OC)c(OC)c2)C3=O)CC1 [Cpd 102, 2-[(1R)-1-(3,4-dimethoxy-phenyl)-4-(2,4-dimethyl-imidazol-1-yl)-butyl]-4-(4-ethyl-piperazin-1-yl)-2,3-dihydro-isoindol-1-one] |  | 
7 | 141 | 1400 | 158 | CCN1CCN(c2cccc3c2CN([C@H](CCCn2ccnc2C)c2ccc(OC)c(OC)c2)C3=O)CC1 [Cpd 103, 2-[(1R)-1-(3,4-dimethoxy-phenyl)-4-(2-methyl-imidazol-1-yl)-butyl]-4-(4-ethyl-piperazin-1-yl)-2,3-dihydro-isoindol-1-one] |  | 
8 | 16 | 206 | 46 | CCN1CCN(c2cccc3c2CN([C@H](CCCn2ccnc2C(C)C)c2ccc(OC)c(OC)c2)C3=O)CC1 [Cpd 104, 2-[(1R)-1-(3,4-dimethoxy-phenyl)-4-(2-isopropyl-imidazol-1-yl)-butyl]-4-(4-ethyl-piperazin-1-yl)-2,3-dihydro-isoindol-1-one] |  | 
9 |  |  |  | (Ac)-CFWK(2-NaI)C—NH2 | 0.54 ± 0.2 | 0.12 ± 0.05
